Data reported in PMC12207590, “Substrate Specificity of the Organic Cation Transporters MATE1 and MATE2K and Functional Overlap with OCT1 and OCT2” (Journal of Medicinal Chemistry, 2025).
Like-named read-outs stand apart in the source and are kept apart here.

Columns and labels:
[1] = biological target: MATE2K (Homo sapiens, UniProt Q86VL8); assay: Uptake ratio in MATE2K-overexpressing HEK293 cells vs empty vector (2.5 μM, 1 min, HPLC-MS/MS); type: cell-based; design: key to MATE2 substrate*: 1 = substrate; 0 = no substrate
[2] = biological target: T1, MATE1 (Homo sapiens, UniProt Q96FL8); assay: Uptake ratio in MATE1-overexpressing HEK293 cells vs empty vector (2.5 μM, 1 min, HPLC-MS/MS); type: cell-based; design: key to MATE1 substrate*: 1 = substrate; 0 = no substrate
T1 sequence (Q96FL8 1-570): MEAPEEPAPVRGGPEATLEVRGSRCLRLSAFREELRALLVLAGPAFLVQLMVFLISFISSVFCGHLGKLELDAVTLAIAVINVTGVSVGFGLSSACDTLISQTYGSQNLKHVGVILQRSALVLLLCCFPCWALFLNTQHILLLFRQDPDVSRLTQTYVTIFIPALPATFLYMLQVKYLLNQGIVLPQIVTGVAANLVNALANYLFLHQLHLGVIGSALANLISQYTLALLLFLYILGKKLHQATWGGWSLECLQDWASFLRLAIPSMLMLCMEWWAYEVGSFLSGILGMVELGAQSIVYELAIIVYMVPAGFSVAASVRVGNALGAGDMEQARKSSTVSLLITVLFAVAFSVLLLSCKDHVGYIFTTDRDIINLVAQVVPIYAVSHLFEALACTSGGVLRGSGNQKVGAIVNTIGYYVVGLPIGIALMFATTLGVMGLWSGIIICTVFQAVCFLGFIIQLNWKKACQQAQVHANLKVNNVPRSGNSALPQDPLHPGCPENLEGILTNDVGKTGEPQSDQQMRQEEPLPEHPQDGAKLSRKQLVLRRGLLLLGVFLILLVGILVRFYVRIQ

[3] = fold uptake over empty vector, 2.5 μM, 1 min
[4] = mean ratio of uptake in MATE2K-overexpressing HEK293 cells vs empty vector, 2.5 μM, 1 min
[5] = mean ratio of uptake in MATE1-overexpressing HEK293 cells vs empty vector, 2.5 μM, 1 min
[6] = uptake ratio MATE2K-overexpressing vs empty-vector HEK293 cells, 2.5 μM, 1 min, mean
[7] = uptake ratio MATE1-overexpressing vs empty-vector HEK293 cells, 2.5 μM, 1 min, mean

Chain of MATE2K (Q86VL8 1-566 isoform Q86VL8-3): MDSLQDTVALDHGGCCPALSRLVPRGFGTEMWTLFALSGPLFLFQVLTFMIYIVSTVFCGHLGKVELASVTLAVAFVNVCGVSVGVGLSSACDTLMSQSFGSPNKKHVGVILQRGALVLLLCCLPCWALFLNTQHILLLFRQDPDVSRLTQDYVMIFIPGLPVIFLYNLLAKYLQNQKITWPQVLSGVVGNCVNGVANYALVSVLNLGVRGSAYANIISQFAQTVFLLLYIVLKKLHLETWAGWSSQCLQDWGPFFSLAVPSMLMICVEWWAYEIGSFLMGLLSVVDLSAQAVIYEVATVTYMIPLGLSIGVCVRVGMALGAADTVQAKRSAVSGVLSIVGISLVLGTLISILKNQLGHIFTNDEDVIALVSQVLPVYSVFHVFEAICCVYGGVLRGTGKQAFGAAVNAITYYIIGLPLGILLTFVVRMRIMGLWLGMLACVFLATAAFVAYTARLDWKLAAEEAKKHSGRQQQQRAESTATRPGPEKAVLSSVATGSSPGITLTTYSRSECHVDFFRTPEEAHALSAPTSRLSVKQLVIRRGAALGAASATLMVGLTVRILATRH

Compound: NCCC(=O)N[C@@H](Cc1cnc[nH]1)C(=O)O [Carnosine]
- MATE2K ratio [1, 3]: 1.03
- MATE2 (uptake ratio) [1, 4]: 1.03
- MATE1 ratio [2, 3]: 0.18
- MATE1 (uptake ratio) [2, 5]: 0.18

Compound: CCNC(C)Cc1ccc2c(c1)OCO2 (stereo not shown) [Methylenedioxyethamphetamine]
- MATE2K ratio [1]: 1.39
- MATE1 ratio [2]: 1.07

Compound: C[C@@H]1O[C@@]2(CS1)CN1CCC2CC1 [Cevimeline]
- MATE2K ratio [1, 3]: 1.35
- MATE2 (uptake ratio) [1, 4]: 1.35
- MATE1 ratio [2, 3]: 1.59
- MATE1 (uptake ratio) [2, 5]: 1.59

Compound: COc1cc2c(cc1OC)[C@@]13CCN4CC5=CCO[C@H]6CC(=O)N2[C@H]1[C@H]6[C@H]5C[C@H]43 [Brucine]
- MATE2 (uptake ratio) [1]: 1.3
- MATE2K ratio [1]: 1.30
- MATE1 (uptake ratio) [2]: 1.13
- MATE1 ratio [2]: 1.13

Compound: COc1ccc(C(CN(C)C)C2(O)CCCCC2)cc1 (stereo not shown) [Venlafaxine]
- MATE2 [1]: 1.3
- MATE1 [2]: 1.22

Compound: CC(C)(C)NCC(O)COc1cccc2c1CCC(=O)N2 (stereo not shown) [Carteolol]
- MATE2K ratio [1, 3]: 6.67
- MATE2 (uptake ratio) [1, 4]: 6.67
- MATE1 ratio [2, 3]: 7.43
- MATE1 (uptake ratio) [2, 5]: 7.43

Compound: CC(C)C(=O)O[C@H](CC(=O)[O-])C[N+](C)(C)C [Isobutyrylcarnitine]
- MATE2K ratio [1, 3]: 1.35
- MATE1 ratio [2, 3]: 1.40

Compound: O=c1ncccn1[C@@H]1O[C@H](CO)[C@@H](O)[C@H]1O [Zebularine]
- MATE2 substrate* ([1]; Table S4): 0
- MATE2 [1, 6]: 0.9
- MATE1 substrate* ([2]; Table S4): 0
- MATE1 [2, 7]: 1.12

Compound: C1CCN2C[C@@H]3C[C@@H](CN4CCCC[C@@H]34)[C@H]2C1 [Sparteine (+), Sparteine]
- MATE2 [1]: 1.31
- MATE2K ratio [1]: 1.31
- MATE1 [2]: 1.62
- MATE1 ratio [2]: 1.62

Compound: COc1ccccc1OCCNCC(O)COc1cccc2[nH]c3ccccc3c12 [Carvedilol (S), Carvedilol]
- MATE2K ratio [1, 3]: 1.18
- MATE2 (uptake ratio) [1, 4]: 1.18
- MATE1 ratio [2, 3]: 1.19
- MATE1 (uptake ratio) [2, 5]: 1.19

Compound: CCCC(=O)OC(CC(=O)[O-])C[N+](C)(C)C (stereo not shown) [Butyrylcarnitine]
- MATE2K ratio [1, 3]: 1.09
- MATE2 (uptake ratio) [1, 4]: 1.09
- MATE1 ratio [2, 3]: 0.82
- MATE1 (uptake ratio) [2, 5]: 0.82

Compound: OC(CNCC(O)C1CCc2cc(F)ccc2O1)C1CCc2cc(F)ccc2O1 (stereo not shown) [Nebivolol]
- MATE2K ratio [1, 3]: 1.45
- MATE1 ratio [2, 3]: 1.41

Compound: CC[N+](CC)(CC)CC [Tetraethylammonium]
- MATE2 [1]: 6.73
- MATE1 [2]: 25.44

Compound: CC/C(=C(\c1ccc(O)cc1)c1ccc(OCCNC)cc1)c1ccccc1 [Endoxifen]
- MATE2K ratio [1, 3]: 1.21
- MATE1 ratio [2, 3]: 1.30

Compound: CC(C)NCC(O)c1ccc(O)c(O)c1 (stereo not shown) [Isoprenaline]
- MATE2K ratio [1, 3]: 4.67
- MATE1 ratio [2, 3]: 16.78

Compound: CN(C)C(N)=NCCC[C@H](N)C(=O)O [NN-Dimethylarginine]
- MATE2K ratio [1, 3]: 0.93
- MATE1 ratio [2, 3]: 0.97

Compound: CC[C@@H]1C(=O)OC[C@@H]1Cc1cncn1C [Pilocarpine]
- MATE2K ratio [1, 3]: 1.39
- MATE1 ratio [2, 3]: 1.39

Compound: Nc1ccc(N)cc1 [p-Phenylenediamine]
- MATE2K ratio [1]: 1.07
- MATE1 ratio [2]: 1.04

Compound: COc1ccc([C@H](CN(C)C)C2(O)CCCCC2)cc1 [Venlafaxine (R)]
- MATE2 [1]: 1.36
- MATE1 [2]: 1.14

Compound: NCCCCN [Putrescine]
- MATE2K ratio [1, 3]: 0.48
- MATE2 [1, 6]: 0.48
- MATE1 ratio [2, 3]: 0.36
- MATE1 [2, 7]: 0.36

Compound: COc1ccc(CCN)cc1 [4-Methoxyphenethylamine]
- MATE2 (uptake ratio) [1]: 1.23
- MATE2K ratio [1]: 1.23
- MATE1 (uptake ratio) [2]: 1.4
- MATE1 ratio [2]: 1.40

Compound: C#CCN[C@@H]1CCc2ccccc21 [Rasagiline (S), Rasagiline]
- MATE2K ratio [1, 3]: 1.46
- MATE2 [1, 6]: 1.46
- MATE1 ratio [2, 3]: 1.46
- MATE1 [2, 7]: 1.46

Compound: CCC(Cc1ccc2c(c1)OCO2)NC (stereo not shown) [2-Methylamino-1-(3,4-methylendioxyphenyl)butan]
- MATE2 (uptake ratio) [1]: 1.24
- MATE2K ratio [1]: 1.24
- MATE1 (uptake ratio) [2]: 1.35
- MATE1 ratio [2]: 1.35

Compound: O=C(NCC1CCCCN1)c1cc(OCC(F)(F)F)ccc1OCC(F)(F)F (stereo not shown) [Flecainide]
- MATE2K ratio [1, 3]: 1.19
- MATE1 ratio [2, 3]: 1.13

Compound: N=C(N)NCCCCNC(=N)N [Arcaine, 1,4-diguanidinobutane]
- MATE2K ratio [1, 3]: 16.29
- MATE2 (uptake ratio) [1, 4]: 16.29
- MATE1 ratio [2, 3]: 40.20
- MATE1 ratio ([2]; fold uptake over empty vector, 2.5 μM, 1 min, listed as arcaine): 40
- MATE1 (uptake ratio) [2, 5]: 40.2

Compound: CC[C@@H]1CN(C(=O)NCC(F)(F)F)C[C@@H]1c1cnc2cnc3[nH]ccc3n12 [Upadacitinib]
- MATE2 [1, 6]: 1.27
- MATE1 [2, 7]: 1.51

Compound: [H]/N=C(\N/C(=N/[H])NCCCCCCNC(=N)NC(=N)Nc1ccc(Cl)cc1)Nc1ccc(Cl)cc1 [Chlorhexidine]
- MATE2K ratio [1, 3]: 0.99
- MATE2 (uptake ratio) [1, 4]: 0.99
- MATE1 ratio [2, 3]: 1.08
- MATE1 (uptake ratio) [2, 5]: 1.08

Compound: N[C@@H](Cc1c[nH]c2ccccc12)C(=O)O [Tryptophan]
- MATE2 [1]: 1.07
- MATE1 [2]: 0.82

Compound: CCN1CCC[C@H]1CNC(=O)c1c(OC)ccc(Br)c1OC [Remoxipride]
- MATE2K ratio [1, 3]: 1.21
- MATE2 [1, 6]: 1.21
- MATE1 ratio [2, 3]: 1.19
- MATE1 [2, 7]: 1.19

Compound: Cc1ccc(C23CNCC2C3)cc1 (stereo not shown) [Bicifadine]
- MATE2K ratio [1, 3]: 1.31
- MATE2 (uptake ratio) [1, 4]: 1.31
- MATE1 ratio [2, 3]: 1.17
- MATE1 (uptake ratio) [2, 5]: 1.17

Compound: COc1ccccc1N1CCN(CCCNc2cc(=O)n(C)c(=O)n2C)CC1 [Urapidil]
- MATE2 [1, 6]: 1.17
- MATE1 [2, 7]: 1.19

Compound: CCCCCCCN [Heptylamine]
- MATE2K ratio [1]: 1.60
- MATE1 ratio [2]: 1.18

Compound: NCCCCCN [Cadaverine]
- MATE2 (uptake ratio) [1]: 0.53
- MATE2K ratio [1]: 0.53
- MATE1 (uptake ratio) [2]: 0.23
- MATE1 ratio [2]: 0.23

Compound: CC(C)C[C@H](N)C(=O)O [Leucine]
- MATE2K ratio [1, 3]: 1.06
- MATE1 ratio [2, 3]: 1.18

Compound: C[C@@H]1CCN(C(=O)CC#N)C[C@@H]1N(C)c1ncnc2[nH]ccc12 [Tofacitinib]
- MATE2K ratio in this study ([1]; Table S1, 2.5 μM, 1 min): 1.41
- MATE2 [1, 6]: 1.41
- MATE1 ratio in this study ([2]; Table S1, 2.5 μM, 1 min): 1.36
- MATE1 [2, 7]: 1.36

Compound: CN(C)CCc1c[nH]c2ccc(CS(=O)(=O)N3CCCC3)cc12 [Almotriptan]
- MATE2K ratio [1, 3]: 2.36
- MATE2 (uptake ratio) [1, 4]: 2.36
- MATE1 ratio [2, 3]: 4.40
- MATE1 (uptake ratio) [2, 5]: 4.4

Compound: CN(C)CCC=C1c2ccccc2COc2ccccc21 [Doxepin (E), Doxepin]
- MATE2K ratio [1, 3]: 1.08
- MATE1 ratio [2, 3]: 1.26

Compound: CCN(CC)C(=O)Nc1ccc(OCC(O)CNC(C)(C)C)c(C(C)=O)c1 (stereo not shown) [Celiprolol]
- MATE2K ratio [1, 3]: 8.76
- MATE2 (uptake ratio) [1, 4]: 8.76
- MATE1 ratio [2, 3]: 11.01
- MATE1 (uptake ratio) [2, 5]: 11.01

Compound: CCCC[N+]1(C)[C@@H]2C[C@@H](OC(=O)[C@H](CO)c3ccccc3)C[C@H]1[C@@H]1O[C@@H]12 (stereo partly shown) [Butylscopolamine]
- MATE2 (uptake ratio) [1]: 1.7
- MATE2K ratio [1]: 1.70
- MATE2K ratio in this study [1]: 1.70
- MATE1 (uptake ratio) [2]: 23.84
- MATE1 ratio [2]: 23.84
- MATE1 ratio in this study [2]: 23.84

Compound: Cc1cnc(Nc2ccc(OCCN3CCCC3)cc2)nc1Nc1cccc(S(=O)(=O)NC(C)(C)C)c1 [Fedratinib]
- MATE2K ratio [1, 3]: 0.87
- MATE1 ratio [2, 3]: 1.16

Compound: CCc1nn(CCCN2CCN(c3cccc(Cl)c3)CC2)c(=O)n1CCOc1ccccc1 [Nefazodone]
- MATE2K ratio [1, 3]: 1.24
- MATE1 ratio [2, 3]: 1.34
